Test results reported in patent publication US20240247080A1, “GLP1/GIP/NPY2 RECEPTOR TRIPLE AGONISTS” (Boehringer Ingelheim International GmbH, priority 2022, published 2024).
Read-outs that look alike come from different tables or passages of the source. Starred links: 1 amine or outer side, 2 acyl side, 3 side chain; linkers in the order of their positions; H or OH if unused. Non-standard residues stand in square brackets, D forms with d. Groups on a side chain read outwards from the residue. No end group written: not given here. *: point of attachment. C20 diacid = O=C(O)CCCCCCCCCCCCCCCCCCC(=O)*; C18 diacid = O=C(O)CCCCCCCCCCCCCCCCC(=O)*; γGlu = O=C(O)[C@H](CCC(=O)[*:2])N[*:1]; εLys = N[C@@H](CCCCN[*:1])C(=O)[*:2]; AEEA = NCCOCCOCC(=O)O; Aib = CC(C)(N)C(=O)O

Assays:
Assay type in all cases: cell-based
Details in all cases: CreLuc reporter gene assay
hNPY2R = molecular target: T1, hNPY2R (Homo sapiens, UniProt P49146); experiment: hNPY2R CreLuc reporter gene assay in 0.5% and 100% plasma
T1 construct: expressed in transfected cells; host or cells: HEK-293 cells carrying a CRE-luciferase reporter gene
T1 sequence (P49146 1-381): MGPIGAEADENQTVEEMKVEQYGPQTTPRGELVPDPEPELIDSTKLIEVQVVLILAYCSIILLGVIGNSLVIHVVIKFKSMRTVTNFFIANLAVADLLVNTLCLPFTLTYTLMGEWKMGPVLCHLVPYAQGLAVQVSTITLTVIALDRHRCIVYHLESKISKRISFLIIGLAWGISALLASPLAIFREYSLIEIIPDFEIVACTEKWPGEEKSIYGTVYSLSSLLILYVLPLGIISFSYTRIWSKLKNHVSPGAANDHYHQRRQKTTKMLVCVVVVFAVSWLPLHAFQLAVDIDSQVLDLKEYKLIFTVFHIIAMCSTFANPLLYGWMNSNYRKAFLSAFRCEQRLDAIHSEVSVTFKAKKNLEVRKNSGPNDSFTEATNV
From the text: Example 1: hGLPR/hGIPR/hNPY2R CreLuc Assay in 0.5% and 100% Plasma
CHO and HEK-293 recombinant cell lines express a luciferase reporter gene under control of the cAMP responsive element (CRE). As a second recombinant protein the GLP-1 and NPY2 receptors were expressed in the reporter gene HEK cells, and the GIP receptor was expressed in the reporter gene CHO cells, respectively. Stimulation of these recombinant cells with an agonist leads to an increase of intracellular cAMP levels. In the presence of cAMP, the transcription factor CRE binding protein (CREB) binds to the CRE and to the CREB binding protein (CBP), which leads to transcription of the luciferase reporter gene. Peptides upon serial-dilution in 100% DMSO were transferred into 384-well assay plates with 5 μl pre-dispensed assay buffer (1×HBSS, 20 mM HEPES, pH7.4 supplemented with 0.5% human plasma) using acoustic dispensing on a Labcyte ECHO. Cryo-preserved transgenic reporter gene cells were thawed in assay buffer. 20 μl (10.000 cells/well) were added to the plate with the peptides and incubated for 4 hours at 37° C. in a humidified incubator. Following incubation, assay plates are equilibrated to room temperature, followed by addition of 25 μl of Bright-GIo™ Luciferase reagent, incubation at room temperature for 10 minutes and analysis of luminescence (Envision Reader). Concentration response evaluation of compounds was performed with 8 concentrations of peptides (covering four decades). EC50 values were calculated by non-linear regression using sigmoid concentration-response with variable slope. The same assays were run in the presence of 100% plasma with no additional buffer constituents.

hGIPR = molecular target: T2, hGIPR (Homo sapiens, UniProt P48546); experiment: hGIPR CreLuc reporter gene assay in 0.5% and 100% plasma
T2 construct: expressed in transfected cells; host or cells: CHO cells carrying a CRE-luciferase reporter gene
T2 sequence (P48546 22-466): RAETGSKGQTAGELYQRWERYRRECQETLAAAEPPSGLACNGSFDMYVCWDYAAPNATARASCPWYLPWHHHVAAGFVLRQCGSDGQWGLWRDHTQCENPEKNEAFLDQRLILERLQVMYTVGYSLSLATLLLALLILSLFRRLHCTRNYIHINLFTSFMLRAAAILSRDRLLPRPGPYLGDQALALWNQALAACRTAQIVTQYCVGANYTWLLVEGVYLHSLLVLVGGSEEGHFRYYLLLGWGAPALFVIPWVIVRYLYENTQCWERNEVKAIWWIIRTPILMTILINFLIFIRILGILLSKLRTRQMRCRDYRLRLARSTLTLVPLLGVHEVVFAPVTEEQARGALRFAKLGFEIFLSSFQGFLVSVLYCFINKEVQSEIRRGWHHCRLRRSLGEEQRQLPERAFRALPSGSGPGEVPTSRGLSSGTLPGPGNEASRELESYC
Summary of the method: (§1)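 HEK-293 cells co-expressing GLP-1 or NPY2 receptor and CHO cells expressing GIP receptor, each carrying a CRE-driven luciferase reporter, were stimulated with peptides for 4 hours at 37 °C. Luminescence was read after Bright-Glo addition. EC50 came from 8-point, four-decade curves fitted by variable-slope non-linear regression.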

hGLP1R = molecular target: T3, hGLP1R (Homo sapiens, UniProt P43220); experiment: hGLP1R CreLuc reporter gene assay in 0.5% and 100% plasma
T3 construct: expressed in transfected cells; host or cells: HEK-293 cells carrying a CRE-luciferase reporter gene
T3 sequence (P43220 24-463): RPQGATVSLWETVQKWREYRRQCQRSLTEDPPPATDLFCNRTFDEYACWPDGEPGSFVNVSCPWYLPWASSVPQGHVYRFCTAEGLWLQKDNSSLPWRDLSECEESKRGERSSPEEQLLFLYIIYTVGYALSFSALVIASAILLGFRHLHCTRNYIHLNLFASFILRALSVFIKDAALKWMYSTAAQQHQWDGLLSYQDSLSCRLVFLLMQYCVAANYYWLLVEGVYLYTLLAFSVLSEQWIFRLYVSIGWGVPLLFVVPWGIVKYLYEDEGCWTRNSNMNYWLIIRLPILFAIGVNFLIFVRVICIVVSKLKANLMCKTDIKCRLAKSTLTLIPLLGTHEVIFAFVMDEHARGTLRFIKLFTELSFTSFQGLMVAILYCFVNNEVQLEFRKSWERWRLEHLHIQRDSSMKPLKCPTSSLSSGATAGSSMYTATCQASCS
Summary of the method: as §1

[1] = 0.5% human plasma, read-out: hNPY2R 0.5% hP
[2] = 0.5% human plasma, read-out: hGIPR 0.5% hP
[3] = 100% human plasma, read-out: hNPY2R 100% hP
[4] = 100% human plasma, read-out: hGIPR 100% hP
[5] = 0.5% human plasma, read-out: hGLP1R 0.5% hP

EC50 (hNPY2R; [1]) [nM] | EC50 (hGIPR; [2]) [nM] | EC50 (hNPY2R; [3]) [nM] | EC50 (hGIPR; [4]) [nM] | EC50 (hGLP1R; [5]) [nM] | EC50 (hGLP1R; 100% human plasma, read-out: hGLP1R 100% hP) [nM] | Substance
19.1 | 0.93 | – | – | – | – | H-Y[Aib]EGTFTSDYSI[Aib]LAAAAQ[Aib]AFVEWLIK([εLys-γGlu-γGlu-γGlu-γGlu-γGlu-γGlu-C20 diacid])GGPSSGASLRHYYNWLTRQRY-NH2 [Compound 20, Y-Aib-E-G-T-F-T-S-D-Y-S-I-Aib-L-A-A-A-A-Q-Aib-A-F-V-E-W-L-I-K(1,3)-GGPSSGASLRHYYNWLTRQRY-NH2.C20DA-gGlu-gGlu-gGlu-gGlu-gGlu-gGlu-eLys(1,2)]
20.6 | 0.16 | 48.7 | 0.98 | – | – | H-Y[Aib]EGTFTSDYSI[Aib]LEKQAE[Aib]AFVEWLIK([AEEA-AEEA-γGlu-γGlu-γGlu-γGlu-C18 diacid])GGPSEGASLRHYYNWLTRQRY-NH2 [Compound 251, Y-Aib-E-G-T-F-T-S-D-Y-S-I-Aib-L-E-K-Q-A-E-Aib-A-F-V-E-W-L-I-K(1,3)-GGPSEGASLRHYYNWLTRQRY-NH2.C18DA-gGlu-gGlu-gGlu-gGlu-OEG-OEG(1,2)]
13.6 | 0.48 | 40.5 | – | – | – | H-Y[Aib]EGTFTSDYSI[Aib]LEKQAQ[Aib]AFVEWLIK([εLys-γGlu-γGlu-γGlu-γGlu-γGlu-γGlu-C20 diacid])GGPRYYASLRHYYNWLTRQRY-NH2 [Compound 62, Y-Aib-E-G-T-F-T-S-D-Y-S-I-Aib-L-E-K-Q-A-Q-Aib-A-F-V-E-W-L-I-K(1,3)-GGPRYYASLRHYYNWLTRQRY-NH2.C20DA-gGlu-gGlu-gGlu-gGlu-gGlu-gGlu-eLys(1,2)]
16.7 | 0.69 | – | 4.36 | – | – | H-Y[Aib]EGTFTSDYSI[Aib]LEKQAQ[Aib]AFVEWLIK([εLys-γGlu-γGlu-γGlu-γGlu-γGlu-γGlu-C20 diacid])GGPSEGVSLRHYYNWLTRQRY-NH2 [Compound 241, Y-Aib-E-G-T-F-T-S-D-Y-S-I-Aib-L-E-K-Q-A-Q-Aib-A-F-V-E-W-L-I-K(1,3)-GGPSEGVSLRHYYNWLTRQRY-NH2.C20DA-gGlu-gGlu-gGlu-gGlu-gGlu-gGlu-eLys(1,2)]
15.1 | – | – | – | 0.31 | – | H-Y[Aib]EGTFTSDYSI[Aib]LEKQAQ[Aib]AFVEWLIK([εLys-γGlu-γGlu-γGlu-γGlu-γGlu-γGlu-C20 diacid])GGPSSAASLRHYYNWLTRQRY-NH2 [Compound 98, Y-Aib-E-G-T-F-T-S-D-Y-S-I-Aib-L-E-K-Q-A-Q-Aib-A-F-V-E-W-L-I-K(1,3)-GGPSSAASLRHYYNWLTRQRY-NH2.C20DA-gGlu-gGlu-gGlu-gGlu-gGlu-gGlu-eLys(1,2)]
13.7 | 0.29 | 78.9 | – | – | – | H-Y[Aib]EGTFTSDYSI[Aib]LEKQAQ[Aib]AFVQWLIK([εLys-γGlu-γGlu-γGlu-γGlu-γGlu-C20 diacid])GGPEEPASLRHYYNWLTRQRY-NH2 [Compound 67, Y-Aib-E-G-T-F-T-S-D-Y-S-I-Aib-L-E-K-Q-A-Q-Aib-A-F-V-Q-W-L-I-K(1,3)-GGPEEPASLRHYYNWLTRQRY-NH2.C20DA-gGlu-gGlu-gGlu-gGlu-gGlu-eLys(1,2)]
12.9 | 0.53 | 24.6 | – | – | – | H-Y[Aib]EGTFTSDYSI[Aib]LEKQAQ[Aib]AFVQWLIK([εLys-γGlu-γGlu-γGlu-γGlu-γGlu-γGlu-C20 diacid])GGPSEYVSLRHYYNWLTRQRY-NH2 [Compound 78, Y-Aib-E-G-T-F-T-S-D-Y-S-I-Aib-L-E-K-Q-A-Q-Aib-A-F-V-Q-W-L-I-K(1,3)-GGPSEYVSLRHYYNWLTRQRY-NH2.C20DA-gGlu-gGlu-gGlu-gGlu-gGlu-gGlu-eLys(1,2)]
– | – | 19.3 | – | 0.5 | 10.2 | H-Y[Aib]EGTFTSDYSI[Aib]LEKQAQ[Aib]AFVQWLIK([εLys-γGlu-γGlu-γGlu-γGlu-γGlu-γGlu-C20 diacid])GGPSYYVSLRHYYNWLTRQRY-NH2 [Compound 19, Y-Aib-E-G-T-F-T-S-D-Y-S-I-Aib-L-E-K-Q-A-Q-Aib-A-F-V-Q-W-L-I-K(1,3)-GGPSYYVSLRHYYNWLTRQRY-NH2.C20DA-gGlu-gGlu-gGlu-gGlu-gGlu-gGlu-eLys(1,2)]
11.1 | 0.27 | – | – | – | – | H-Y[Aib]EGTFTSDYSI[Aib]LEKQAQ[Aib]EFVEWLIK([AEEA-AEEA-γGlu-γGlu-γGlu-C18 diacid])GGPESGASLRHYYNWLTRQRY-NH2 [Compound 81, Y-Aib-E-G-T-F-T-S-D-Y-S-I-Aib-L-E-K-Q-A-Q-Aib-E-F-V-E-W-L-I-K(1,3)-GGPESGASLRHYYNWLTRQRY-NH2.C18DA-gGlu-gGlu-gGlu-OEG-OEG(1,2)]
19.3 | 0.38 | – | 1.52 | – | – | H-Y[Aib]EGTFTSDYSI[Aib]LEKQAQ[Aib]EFVEWLIK([AEEA-AEEA-γGlu-γGlu-γGlu-C20 diacid])GGPSEGASLRHYYNWLTRQRY-NH2 [Compound 273, Y-Aib-E-G-T-F-T-S-D-Y-S-I-Aib-L-E-K-Q-A-Q-Aib-E-F-V-E-W-L-I-K(1,3)-GGPSEGASLRHYYNWLTRQRY-NH2.C20DA-gGlu-gGlu-gGlu-OEG-OEG(1,2)]
12.4 | 0.5 | – | 2.94 | – | – | H-Y[Aib]EGTFTSDYSI[Aib]LEKQAQ[Aib]EFVEWLIK([εLys-γGlu-γGlu-γGlu-γGlu-γGlu-γGlu-C20 diacid])GGPSSGASLRHYYNWLTRQRY-NH2 [Compound 215, Y-Aib-E-G-T-F-T-S-D-Y-S-I-Aib-L-E-K-Q-A-Q-Aib-E-F-V-E-W-L-I-K(1,3)-GGPSSGASLRHYYNWLTRQRY-NH2.C20DA-gGlu-gGlu-gGlu-gGlu-gGlu-gGlu-eLys(1,2)]
11.2 | – | 56.3 | – | 0.74 | – | H-Y[Aib]EGTFTSDYSI[Aib]LEKQAQ[dD]AFVEWLIK([εLys-γGlu-γGlu-γGlu-γGlu-γGlu-γGlu-C20 diacid])GGPSSGASLRHYYNWLTRQRY-NH2 [Compound 211, Y-Aib-E-G-T-F-T-S-D-Y-S-I-Aib-L-E-K-Q-A-Q-DAsp-A-F-V-E-W-L-I-K(1,3)-GGPSSGASLRHYYNWLTRQRY-NH2.C20DA-gGlu-gGlu-gGlu-gGlu-gGlu-gGlu-eLys(1,2)]
– | – | 16.8 | – | 0.31 | – | H-Y[Aib]EGTFTSDYSI[Aib]LEKQAQ[dR]AFVEWLIK([εLys-γGlu-γGlu-γGlu-γGlu-γGlu-γGlu-C20 diacid])GGPSSGASLRHYYNWLTRQRY-NH2 [Compound 216, Y-Aib-E-G-T-F-T-S-D-Y-S-I-Aib-L-E-K-Q-A-Q-DArg-A-F-V-E-W-L-I-K(1,3)-GGPSSGASLRHYYNWLTRQRY-NH2.C20DA-gGlu-gGlu-gGlu-gGlu-gGlu-gGlu-eLys(1,2)]
12.8 | 0.46 | 43.4 | 2.43 | – | – | Y[Aib]EGTFTSDYSI[Aib]LEKQAE[Aib]AFVQWLIK([AEEA-AEEA-γGlu-γGlu-γGlu-γGlu-C20 diacid])GGPSEGASLRHYYNWLTRQRY-NH2 [Compound 219, Y-Aib-E-G-T-F-T-S-D-Y-S-I-Aib-L-E-K-Q-A-E-Aib-A-F-V-Q-W-L-I-K(1,3)-GGPSEGASLRHYYNWLTRQRY-NH2.C20DA-gGlu-gGlu-gGlu-gGlu-OEG-OEG(1,2)]
